In patent US8563616B2, “Desensitizing drug product” (priority 2009, dated 2013):
Where two headings read alike, the source gives them in different places.

Assays:
[1] = in the mixtures that formed a homogenous oil; cited from earlier work
[2] = Melt System III, cited from earlier work; for Percentage in aq: amount in aqueous phase/total amount in whole system × 100; for Percentage in oil: amount in oil phase/total amount in whole system × 100; for Conc in aq: g per 100 g of aqueous phase; for Conc in oil: g per 100 g of oil phase
[3] = pKa and ionization of lidocaine; assay type: physicochemical; settings: pH 8.9
[4] = mixture containing 25% ethyl alcohol, 5% lidocaine, pH 9.2 phosphate buffer; cited from earlier work

SMILES	chemical stability [1]	Percentage in aq [2] [%]	Percentage in oil [2]	Percentage in oil ([2]; listed as T) [%]	Conc in aq [2] [%]	Conc in oil [2] [%]	ionized [3] [%]	concentration of lidocaine in the oil [4]	Percentage in oil ([2]; listed as L) [%]
Cc1ccc(C(C)C)c(O)c1 [Thymol, thymol]	chemically stable	14.88	approximately 85%	85.13	0.09	10.60			
CCN(CC)CC(=O)Nc1c(C)cccc1C [Lidocaine, lidocaine]		20.80	approximately 80%		1.09	87.00	10	73 % (w:w)	79.20
